The source of these data is article PMC5622733, “Polymethoxyflavones: Novel β-Secretase (BACE1) Inhibitors from Citrus Peels” (Nutrients, 2017).

For data set [1], the system named is inducible nitric oxide synthase (iNOS), cyclooxygenase-2 (COX-2). The following applies: cited from earlier work.
Data set [2] concerns ERK and CREB signaling pathways. The settings on record: cited from earlier work.
The conditions of data set [3]: cited from earlier work.
The subject of the next data set is APP-SL 7-5 Tg mice. The settings on record: daily from 4 to 9 months of age; cited from earlier work.
Another data set addresses T1, Chymotrypsin (Bos taurus, UniProt P00766).
T1 construct: purchased Sigma-Aldrich (St. Louis, MO, USA)
Nature of the data set: Chymotrypsin assay. It counts as biochemical. The following applies: read-out: Inhibitory activity (%) against Chymotrypsin. As to the method:
(§1) BACE1 inhibition was determined by enzymatic assay using the fluorescent resonance energy transfer (FRET)-based BACE1 kit from Invitrogen (Pan Vera, Madison, WI, USA). α-Secretase (tumor necrosis factor-α converting enzyme, TACE) and substrate were obtained from R&D Systems (Minneapolis, MN, USA). Trypsin, chymotrypsin, elastase, and their substrates were obtained from Sigma-Aldrich (St. Louis, MO, USA). The measurement of fluorescence and optical density was performed with a BioTEK ELISA microplate fluorescence reader FLx 800 and BioTEK ELx 808 (Winooski, VT, USA), respectively.
(§2) BACE1, TACE, chymotrypsin, trypsin and elastase assays were performed according to previous methods. Fluorometric BACE1 and TACE assay were measured using a Rh-[…]-Quencher and Mca-PLAQAV-Dpa-RSSSR-NH2 as substrates. Trypsin, chymotrypsin, and elastase were assayed according to the manual described in the reference using N-benzoyl-L-Arg-pNA, N-benzoyl-L-Tyr-pNA, and N-succinyl-Ala-Ala-Ala-pNA as substrates, respectively.

Data set [4] has as its target T2, BACE1 (Homo sapiens, UniProt P56817).
T2 construct: purchased Invitrogen (Pan Vera, Madison, WI, USA)
Briefly: FRET-based BACE1 inhibition assay. The class given is biochemical. The following applies: FRET substrate Rh-[…]-Quencher. As to the method:
as §1, §2

The target of data set [5] is T2, BACE1. Briefly: BACE1 inhibition kinetics (Dixon and Lineweaver–Burk plots). The class given is biochemical. The settings on record: for Type of inhibition: Dixon and Lineweaver–Burk plots; for Ki: substrate 250-750 nM, read-out: Ki calculated from the Dixon plots. How it is done: The kinetic mechanisms of the different samples towards BACE1 were determined by the graphical views of Dixon and Lineweaver–Burk plots. The inhibitory constants (Ki) value was defined by interpretation of the Dixon plot, where the value of the x-axis implies -Ki. […] The kinetic parameters were then calculated using Enzyme Kinetic^TM module of SigmaPlot^TM version 12.3 (Systat Software, Inc., San Jose, CA, USA).

The test system of the next data set is 3XTg-AD mice. The following applies: cited from earlier work.
For data set [6] the following is noted: cited from earlier work. This is another data set of the same source.
The test system of another data set is Trypsin. Briefly: Trypsin assay. It counts as biochemical. How it is done: as §1, §2
For data set [7], the system named is olfactory bulbectomy-induced memory impairment. The settings on record: administration for 11 days; cited from earlier work.
A further data set relates to P-glycoprotein (P-gp). Details: method as in PMID 11098080, PMID 17348674. The settings on record: adriamycin-resistant human myelogenous leukemia cells and Caco-2 cells, talinolol as probe; cited from earlier work.
Data set [8] has as its target T3, α-secretase (tumor necrosis factor-α converting enzyme, TACE) (Homo sapiens, UniProt P78536).
T3 construct: purchased R&D Systems (Minneapolis, MN, USA)
Briefly: TACE (α-secretase) fluorometric assay. The class given is biochemical. The following applies: read-out: Inhibitory activity (%) against TACE. How it is done:
as §1, §2

The next data set has as its target T4, Elastase (Sus scrofa, UniProt P00772).
T4 construct: purchased Sigma-Aldrich (St. Louis, MO, USA)
Nature of the data set: Elastase assay. The class given is biochemical. The settings on record: read-out: Inhibitory activity (%) against Elastase. How it is done: as §1, §2

Data set [9] concerns cyclic AMP response element-mediated transcription. Set-up: method as in PMID 23588349. The following applies: rat hippocampal neurons; cited from earlier work.
The conditions of data set [10]: rats, up to 1000 to 3000 mg/kg bw; cited from earlier work.
In another data set the test system is 6-OHDA-lesioned rats. The following applies: 20 mg/kg/day for 4 days before 6-OHDA injection; cited from earlier work.
Data set [11] deals with primary rat microglia and BV-2 microglial cell. The settings on record: LPS-induced; cited from earlier work.
The conditions of data set [12]: chronic oral administration; cited from earlier work.

T3 sequence (P78536 215-824): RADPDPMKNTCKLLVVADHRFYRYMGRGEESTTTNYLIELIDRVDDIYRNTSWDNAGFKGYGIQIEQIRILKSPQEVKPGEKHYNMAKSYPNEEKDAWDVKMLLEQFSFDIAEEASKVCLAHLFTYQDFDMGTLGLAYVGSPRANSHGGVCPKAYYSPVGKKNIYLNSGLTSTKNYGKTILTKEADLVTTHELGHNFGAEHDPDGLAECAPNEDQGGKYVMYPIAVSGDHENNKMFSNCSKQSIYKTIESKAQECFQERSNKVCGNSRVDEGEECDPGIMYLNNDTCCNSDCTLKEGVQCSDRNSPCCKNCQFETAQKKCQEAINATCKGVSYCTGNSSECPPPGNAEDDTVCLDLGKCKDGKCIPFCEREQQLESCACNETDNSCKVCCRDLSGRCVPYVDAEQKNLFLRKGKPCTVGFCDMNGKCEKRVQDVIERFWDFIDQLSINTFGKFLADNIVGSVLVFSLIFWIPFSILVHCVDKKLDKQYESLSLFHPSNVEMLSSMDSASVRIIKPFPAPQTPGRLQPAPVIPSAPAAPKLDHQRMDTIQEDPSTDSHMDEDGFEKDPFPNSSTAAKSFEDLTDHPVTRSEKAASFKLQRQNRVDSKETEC
T2 sequence (P56817 46-501): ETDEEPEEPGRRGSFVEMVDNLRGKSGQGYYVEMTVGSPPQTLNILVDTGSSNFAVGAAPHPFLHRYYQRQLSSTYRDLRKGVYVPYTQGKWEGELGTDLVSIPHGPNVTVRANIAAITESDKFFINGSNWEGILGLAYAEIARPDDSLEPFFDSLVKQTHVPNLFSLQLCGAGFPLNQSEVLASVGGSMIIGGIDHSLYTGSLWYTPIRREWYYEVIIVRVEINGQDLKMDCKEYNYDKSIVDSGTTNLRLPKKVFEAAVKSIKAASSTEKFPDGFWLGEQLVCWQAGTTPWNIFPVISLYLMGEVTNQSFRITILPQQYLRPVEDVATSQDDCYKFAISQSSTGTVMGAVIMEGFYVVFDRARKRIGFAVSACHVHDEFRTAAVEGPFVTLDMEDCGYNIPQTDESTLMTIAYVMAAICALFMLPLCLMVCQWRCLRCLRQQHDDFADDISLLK
T4 sequence (P00772 27-266): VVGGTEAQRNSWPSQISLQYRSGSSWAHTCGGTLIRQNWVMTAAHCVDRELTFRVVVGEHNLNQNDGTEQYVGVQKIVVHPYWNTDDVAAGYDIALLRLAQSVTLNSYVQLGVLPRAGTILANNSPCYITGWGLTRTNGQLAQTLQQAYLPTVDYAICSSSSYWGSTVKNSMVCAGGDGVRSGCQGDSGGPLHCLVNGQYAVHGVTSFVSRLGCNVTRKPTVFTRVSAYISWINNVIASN

With `COc1c(OC)c(OC)c2c(=O)cc(-c3ccc(O)c(O)c3)oc2c1OC` [3′,4′-di-DMN], in data set [1], the “Suppression of gene expression of iNOS and COX-2 relative to parent compound” value is on record as “more efficiently suppressed”.

Take `COc1ccc(-c2cc(=O)c3c(OC)c(OC)c(OC)c(OC)c3o2)cc1O` [3′-DMN]: in data set [1], the “iNOS inhibition relative to nobiletin” value was “more efficiently than nobiletin”.

With `COc1cc(-c2cc(=O)c3c(OC)c(OC)c(OC)c(OC)c3o2)ccc1O` [4′-DMN], the “Phosphorylation of ERK and CREB” value in data set [2] is given as “stimulate phosphorylation”. Moreover, in data set [3], the “Ability to cross the blood–brain barrier (BBB)” value is given as “able to cross the blood–brain barrier (BBB)”. The “Suppression of gene expression of iNOS and COX-2 relative to parent compound” value in data set [1] was “more efficiently suppressed”.

For orientation: IC50 means the concentration at which inhibition is half-maximal. A higher IC50 goes with weaker potency. As a reminder, the Ki is the dissociation constant of the complex between target and ligand, obtained from inhibition or displacement. Take `COc1ccc(-c2cc(=O)c3c(OC)c(OC)c(OC)c(OC)c3o2)cc1OC` [Nobiletin, 5,6,7,8,3′,4′-hexamethoxyflavone]: in the data set on APP-SL 7-5 Tg mice, the “Aβ1-42 and Aβ1-40 in the brain” value is “reduced quantity”; the “Memory impairment, context-dependent fear conditioning test” value was “significantly reversed memory impairment”. On Chymotrypsin, the inhibition at 50 µM was found to be 1.39 ± 0.17% and the inhibition at 100 µM came out at 1.77 ± 0.06%. The midpoint of inhibition against BACE1 [4], the IC50, lay at 59 µM. On BACE1 [5], the Type of inhibition entry is on record as “noncompetitive” and the Ki is 34 µM. The “Soluble Aβ1-40 and ROS levels in brain and hippocampus” value with 3XTg-AD mice is on record as “reduced the levels”. For the same compound, in data set [6] (mice, oral 50 mg/kg), the “Content in the brain” value is 3.6 mg/kg and the “Content in the brain (molar)” value is given as “approximately 8.9 µM”. In [6] (oral administration), the “Accumulation in the brain versus liver” value was “much higher than that in the liver”. The “Inhibitory activity (%) against Trypsin” value in the data set with Trypsin (50 μM) was 1.00 ± 0.07%. Besides, the “Inhibitory activity (%) against Trypsin” value with Trypsin (100 μM) turned out to be 0.92 ± 0.06%. For the same compound, in data set [7], the Memory impairment entry is “significantly recovered”. In the data set on P-glycoprotein (P-gp), the P-gp inhibition entry is “inhibitory potential with P-gp”. Moreover, in data set [8], the inhibition at 50 µM came to 5.49 ± 0.34% and the inhibition at 100 µM was 11.6 ± 3.07%. Moreover, at Elastase, the inhibition at 50 µM was found to be 5.51 ± 1.17% and the inhibition at 100 µM worked out at 4.49 ± 1%.

Regarding `COc1ccc(-c2cc(=O)c3c(OC)c(OC)c(OC)cc3o2)cc1OC` [Sinensetin, 5,6,7,3′,4′-pentamethoxyflavone], the inhibition at 50 µM turned out to be 9.08 ± 0.48% at Chymotrypsin, 7.88 ± 1.12% in [8] and 7.4 ± 2.09% at Elastase. The inhibition at 100 µM on Chymotrypsin is 8.78 ± 0.8%; in data set [8], 7.19 ± 1.35%; at Elastase it was 11.4 ± 1.38%. The same compound registered an IC50 on BACE1 [4] of 63 µM. The Type of inhibition result at BACE1 [5] was “noncompetitive”. Also, the Ki at BACE1 [5] is 38 µM. Further, the CRE-mediated transcription entry in data set [9] was “activate”. Also, the “Inhibitory activity (%) against Trypsin” value in the data set on Trypsin (50 μM) was 5.16 ± 0.69%; in the data set with Trypsin (100 μM), 4.70 ± 0.58%.

As to `COc1ccc(-c2cc(=O)c3c(OC)c(OC)c(OC)c(OC)c3o2)cc1` [Tangeretin, 5,6,7,8,4′-pentamethoxyflavo-ne], the inhibition at 50 µM on Chymotrypsin turned out to be 5.68 ± 0.86%; in data set [8], 8 ± 1%; at Elastase it was 8.64 ± 0.65%. The inhibition at 100 µM is 6.16 ± 0.38% on Chymotrypsin, 11.3 ± 1.66% in [8] and 10.6 ± 1.09% on Elastase. On BACE1 [4], this compound returned an IC50 of 49 µM. The Type of inhibition result on BACE1 [5] was “noncompetitive”. For the same compound, at BACE1 [5], the Ki was 37 µM. Also, the “Inhibitory activity (%) against Trypsin” value in the data set with Trypsin (50 μM) is 8.10 ± 0.99%; with Trypsin (100 μM), 11.80 ± 1.04%. The “Death and clinical chemistry in oral acute and sub-acute study” value in data set [10] was “no evidence of death nor significant change of clinical chemistry”. Also, the “Loss of TH+ cells and striatal dopamine content” value with 6-OHDA-lesioned rats is given as “markedly reduced the loss”. Besides, the Microglial cell activation entry in data set [11] is “suppressed”. Further, in data set [12], the “Detection in the hippocampus” value is on record as “detected in the hippocampus”. In the data set on P-glycoprotein (P-gp), the P-gp inhibition entry was “inhibitory potential with P-gp”.
